Test results from ChEMBL document CHEMBL2074229, “Inhibition of drug transport by genistein in multidrug-resistant cells expressing P-glycoprotein” (Biochem Pharmacol, 1997).

Target: ATP-dependent translocase ABCB1 (Homo sapiens, UniProt P08183)
Experiment: TP_TRANSPORTER: inhibition of Rhodamine 123 efflux (R123: 10 uM, Genistein: 200 uM) in BALB/c-3T3-1000 cells (MDR1-transfected)
Format: functional, cell-based
Settings: mouse, balb/c-3t3-1000, 200 µM

ATP-dependent translocase ABCB1, sequence (P08183 whole entry): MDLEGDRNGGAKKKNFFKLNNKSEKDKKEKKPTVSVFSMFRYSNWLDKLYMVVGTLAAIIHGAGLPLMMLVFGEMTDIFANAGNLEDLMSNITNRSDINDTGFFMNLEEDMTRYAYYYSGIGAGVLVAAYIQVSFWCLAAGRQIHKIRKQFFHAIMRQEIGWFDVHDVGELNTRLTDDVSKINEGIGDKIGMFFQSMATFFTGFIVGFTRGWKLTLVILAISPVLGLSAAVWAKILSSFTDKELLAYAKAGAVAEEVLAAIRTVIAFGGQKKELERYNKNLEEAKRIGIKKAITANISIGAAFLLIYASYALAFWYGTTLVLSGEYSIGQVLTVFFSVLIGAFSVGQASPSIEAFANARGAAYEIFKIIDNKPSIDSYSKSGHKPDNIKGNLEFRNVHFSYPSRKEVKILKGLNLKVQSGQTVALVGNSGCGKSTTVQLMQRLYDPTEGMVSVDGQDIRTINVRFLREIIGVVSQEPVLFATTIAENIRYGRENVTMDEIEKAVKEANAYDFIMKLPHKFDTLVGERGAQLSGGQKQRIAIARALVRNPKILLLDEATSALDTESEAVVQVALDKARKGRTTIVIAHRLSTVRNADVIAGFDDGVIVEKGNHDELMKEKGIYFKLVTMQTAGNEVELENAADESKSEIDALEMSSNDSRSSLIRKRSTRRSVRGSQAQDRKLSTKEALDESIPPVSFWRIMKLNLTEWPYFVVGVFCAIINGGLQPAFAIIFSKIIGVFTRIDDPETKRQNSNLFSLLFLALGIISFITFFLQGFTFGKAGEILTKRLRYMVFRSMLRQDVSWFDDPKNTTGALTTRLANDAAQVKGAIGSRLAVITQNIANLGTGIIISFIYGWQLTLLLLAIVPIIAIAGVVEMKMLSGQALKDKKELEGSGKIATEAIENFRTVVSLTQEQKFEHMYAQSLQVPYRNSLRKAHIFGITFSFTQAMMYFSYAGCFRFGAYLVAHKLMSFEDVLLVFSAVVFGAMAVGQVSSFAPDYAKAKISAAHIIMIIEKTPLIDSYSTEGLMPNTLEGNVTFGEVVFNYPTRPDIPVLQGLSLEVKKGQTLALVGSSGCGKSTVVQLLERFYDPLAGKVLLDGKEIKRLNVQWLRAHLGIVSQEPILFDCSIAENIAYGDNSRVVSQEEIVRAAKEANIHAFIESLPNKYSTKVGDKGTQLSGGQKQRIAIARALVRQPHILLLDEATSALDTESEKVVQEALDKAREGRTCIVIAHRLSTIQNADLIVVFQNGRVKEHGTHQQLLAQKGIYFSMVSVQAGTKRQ

## O=c1c(-c2ccc(O)cc2)coc2cc(O)cc(O)c12 [GENISTEIN]
  Inhibition: inhibitor [50-60 % inhibition]
